In patent US20120107417A1, “Effective Antitumor Treatments” (PHARMA MAR, S.A., priority 2000, published 2012):

Tests used:
sc transplanted TE671 = experiment: ET-743/DDP against sc transplanted TE671; format: in vivo, human; settings: single drugs at MTD or combination
HS-18 cells = experiment: Cell cycle analysis (propidium iodide, FACS), HS-18; format: cell-based, human
Description: (§1) Exponentially growth cells were treated with or without drugs for several hours. Cells were then collected and fixed with ice-cold 70% methanol. DNA was stained with propidium iodide as described previously. Ten thousand stained cells were analyzed on a Becton Dickinson fluorescence-activated cell sorter (FACS).

[1] = Plasma levels of ET-743 in rats pretreated with dex; format: in vivo; settings: rats given dex 50 mg/kg daily for 3 days prior to ET-743, compared to ET-743 alone
Description: (§2) Plasma levels of ET-743 in rats which received dex (50 mg/kg) daily for 3 days prior to ET-743 were not decreased compared to those in rats on ET-743 alone. Furthermore, the activity of ET-743 against B16 melanoma implanted into mice was not impeded by dexamethasone.

[2] = test system: murine fibrosarcoma UV2237; experiment: ET-743/doxorubicin against murine fibrosarcoma UV2237 in mice; format: in vivo; settings: alone or combination
HT-1080 cells = experiment: Cell cycle analysis (propidium iodide, FACS), HT-1080; format: cell-based, human
Description: as §1

osteosarcoma (OSA-FH) [3] = experiment: Hollow fiber (HF) model, osteosarcoma; format: in vivo
Text: (§3) Osteosarcoma xenografts produced similar results of 17% vs. 43%. […] The one exception was in NSCL were Et743 alone was not active (62% T/C) but DPP followed by Et743 produced CR (<1% T/C). In renal xenografts Et743 alone was very active (22% T/C) but Et743 followed by VINB also produced CR (<1% T/C). Separate studies are underway with other standard agents in breast, renal, melanoma and gastric tumor xenografts.

chondrosarcoma (CSHA) = experiment: Hollow fiber (HF) model, chondrosarcoma; format: in vivo
Text: as §3

HS-18 = experiment: SRB cytotoxicity assay and Chou-Talalay combination index, HS-18; format: cell-based, human; settings: HS-18 liposarcoma cell line; read-out: IC50
Description: (§4) Soft tissue sarcoma cell lines, HT-1080 and HS-18 were maintained as monolayer cultures in RP<I-1640 containing 10% fetal bovine serum.
(§5) Cytotoxicity to drugs was determined by SRB cytotoxicity assay carried out in 96-well microtiter plates as described. Cells were plated in duplicate wells (5000 cells/well) and exposed to drugs at different concentrations. Cells were fixed with 50% TCA solution for 1 h and 0.4% SRB (Sigma) was added to each well. After a 30 min incubation, the plate were washed with 1% acetic acid and read at 570 nm on a Biowhitaker microplate reader 2001. The wells with cells containing no drugs and with medium plus drugs but no cells were used as positive and negative controls, respectively.
(§6) Cells were seeded into 96-well plates, as described previously. Cells were treated with seven different concentrations of the single drugs or combinations mixture at 1:100 (ET-743: the other drugs) molar ratio. After 72 h exposure, growth inhibition was measured using the SRB assay.
(§7) Using the same experimental setup described above, we exposed cells to three different concentrations of drugs which represents the IC25, IC50, IC75 of ET-743, DXR, TMTX and paclitaxel, respectively. After 24 hours pre-treatment with ET743 or the combination drug, the second drugs were added to the respective wells for 48 h. Growth inhibition was determined using the SRB assay.)
(§8) The CI was calculated by the Chou-Talalay equation, which takes into account both potency (Dm or IC50) and the shape of the dose effect curve (the m value). The general equation for the classic isobologram (CI=1) is given by:
(§9) CI=(D)1/(Dx)1+(D)2/(Dx)2 (A)

UV2237/ADR = experiment: ET-743/doxorubicin against mdr-resistant subline UV2237/ADR in mice; format: in vivo, murine; settings: alone or combination
fibrosarcoma (SW684) = experiment: Hollow fiber (HF) model, fibrosarcoma; format: in vivo; settings: DOX 8 mg/Kg 1 hr pre-Et743 0.2 mg/Kg vs Et743 alone, qdx5
Text: as §3

[4] = test system: human ovarian carcinoma HOC8; experiment: ET-743/DDP against orthotopically transplanted HOC8; format: in vivo; settings: HOC8 orthotopic, peritoneal nodules with ascites; single agents
ovarian 1 A 9 tumor = experiment: ET-743/DDP against ovarian 1A9 tumor in vivo; design: species or system human; settings: single agents
Text: The ovarian 1 A 9 tumor that is normally resistant to both ET-743 and DDP as single agents, in combination produced a tumor growth inhibition greater than 50%.

ovary (MRI-H-1834) = experiment: Hollow fiber (HF) model, ovary; format: in vivo; settings: Et743 0.2 mg/Kg pre-DDP 12 mg/Kg vs Et743 alone
Text: as §3

ovary (HOC 22) = settings: Hendriks et al. 1999; cited from earlier work
melanoma (MEXF 989) = settings: Hendriks et al. 1999; cited from earlier work
NER deficient cells = NER deficient cells very sensitive to cisplatin; previous studies; cited from earlier work
[5] = test system: human rabdomyosarcoma zenograft TE671; experiment: ET-743/doxorubicin against TE671 xenograft in athymic (nude) mice; format: in vivo
Description: In vivo: Single iv treatments (ET-743, 0.1 mg/Kg; DOX, 10 mg/Kg) were administered in nude mice when xenograft tumors weighed approximately 100 mg.

NSCL (LXFL 529) = settings: Hendriks et al. 1999; cited from earlier work
HT-1080 = experiment: SRB cytotoxicity assay and Chou-Talalay combination index, HT-1080; format: cell-based, human; settings: HT 1080 fibrosarcoma cell line; read-out: IC50
Description: as §4, §5, §6, §7, §8, §9

renal (MRI-H-121) = experiment: Renal xenografts, Et743 and VINB; format: in vivo; settings: Et743 alone vs Et743 followed by VINB 6 mg/Kg
Text: as §3

liver = settings: rat
Description: In the light of the antiinflammatory activity of dex, we investigated its effect on liver damage induced by ET-743 in the rat. Female Wistar rats received a single iv dose of ET-743 (40 μg/kg). Some rats were pretreated with a single oral dose of dex either at 1, 5, 10 or 20 mg/kg 24 h prior to ET-743 treatment. Liver pathology and plasma concentrations of alkaline phophatase (ALP), aspartate aminotransferase (GOT) and total bilirubin (TB) were assessed up to 3 days post ET-743 administration. Conventional histological sections of the livers were examined by light microscopy.

osteosarcoma (OSA-FH) [6] = experiment: Osteosarcoma xenografts; format: in vivo; settings: DOX 1 hr pre-Et743 vs Et743 alone
Text: as §3

xenograft = experiment: Xenograft, Et743 pre-DDP (tumor not named); format: in vivo; settings: xenograft data; Et743 pre-DDP vs Et743 alone
Text: as §3

B16 melanoma = experiment: Activity of ET-743 against B16 melanoma with dexamethasone; format: in vivo; settings: mice
Description: as §2

TE 671 cells = experiment: Clonogenic assay ET-743/DOX, TE 671; format: cell-based, human; settings: 1 hr exposures, isobologram analysis and Combination Index
Description: In vitro: The effect of each drug or combination after 1 hr exposures was evaluated by clonogenic assay.

[7] = test system: mismatch repair (MMR) deficient cells; settings: MMR deficient vs proficient cells; previous studies; cited from earlier work
breast carcinoma (MX-1) = settings: Hendriks et al. 1999; cited from earlier work
NSCL (LX-1) = experiment: NSCL tumor, Et743 and DDP; format: in vivo; settings: Et743 alone vs DDP followed by Et743
Text: as §3

[8] = 24 h after treatment with approximate IC50 dose
[9] = 72 h after treatment with approximate IC50 dose
[10] = DOX 8 mg/Kg 1 hr pre-Et743 0.2 mg/Kg vs Et743 alone, qdx5
[11] = single i.v. treatment at tumor approx. 100 mg, drug alone (ET-743 0.1 mg/kg; Dx 10 mg/kg)
[12] = ET-743 40 μg/kg iv alone, after 2 days

Ecteinascidin 743 [ET-743]
antitumor effect in words (sc transplanted TE671): partially sensitive
% G1 (HS-18 cells; [8]): 32.4%
% G2-M (HS-18 cells; [8]): 20.0%
% S phase (HS-18 cells; [8]): 47.6%
% G1 (HS-18 cells; [9]): 86.7%
% G2-M (HS-18 cells; [9]): 4.9%
% S phase (HS-18 cells; [9]): 8.4%
Plasma levels of ET-743 [1]: not decreased
antitumor effect in words [2]: effective
% G1 (HT-1080 cells; [8]): 42.6%
% G2-M (HT-1080 cells; [8]): 21.3%
% S phase (HT-1080 cells; [8]): 36.1%
% G1 (HT-1080 cells; [9]): 83.1%
% G2-M (HT-1080 cells; [9]): 6.7%
% S phase (HT-1080 cells; [9]): 10.2%
T/C (osteosarcoma (OSA-FH) [3]; [10]): 34%
T/C (osteosarcoma (OSA-FH) [3]; Et743 pre-DDP and Et743 alone, equivalent activities): 36%
T/C (chondrosarcoma (CSHA); [10]): 10%
T/C (chondrosarcoma (CSHA); Et743 0.2 mg/Kg pre-DDP 12 mg/Kg vs Et743 alone): 19%
IC50 (HS-18): 0.27 nM
antitumor effect in words (UV2237/ADR): inactive or marginally active
T/C (fibrosarcoma (SW684)): 48%
sensitivity of tumor to single agent [4]: resistant
sensitivity of tumor to single agent (ovarian 1 A 9 tumor): resistant
T/C (ovary (MRI-H-1834)): 100%
in vivo tumor growth inhibition, single agent (ovary (HOC 22)): complete remissions
in vivo tumor growth inhibition, single agent (melanoma (MEXF 989)): complete remissions
times less sensitive to ET-743 (NER deficient cells): 6-8 times
antitumor effect in words ([5]; TE671 in mice, alone or combination): inactive or marginally active
Log 10 Cell Kill (LCK) [5, 11]: 0.132
tumor weight inhibition (TWI) [5, 11]: 46%
in vivo tumor growth inhibition, single agent (NSCL (LXFL 529)): complete remissions
IC50 (HT-1080): 0.01 nM
T/C (renal (MRI-H-121)): 22%
Plasma levels of ALP (liver; [12]): significantly elevated
Plasma levels of GOT (liver; [12]): significantly elevated
plasma TB concentrations (liver; ET-743 40 μg/kg iv alone, commenced on day 2): dramatic increase
liver pathology (liver; ET-743 40 μg/kg single iv alone, 2 days post treatment): bile duct inflammation, striking degenerative changes in biliary epithelial cells and zones of hepatic necrosis
T/C (osteosarcoma (OSA-FH) [6]): 43%
T/C (xenograft): 66%
activity of ET-743 against B16 melanoma (B16 melanoma): not impeded
anti-tumor activity / interaction in clonogenic assay (TE 671 cells): showed anti-tumor activity
sensitivity to ET-743 compared with proficient cells [7]: equally sensitive
in vivo tumor growth inhibition, single agent (breast carcinoma (MX-1)): complete remissions
T/C (NSCL (LX-1)): 62%
